The data set is described as follows: Metabolic stability in rat liver microsomes (RLMs). As to conditions: for TIC value at 0 min: 0 min incubation, Ox (+16)/(+32), deMe (-14)/(-28) = mass adducts (metabolites); for TIC value at 0 min / TIC value at 5 min / TIC value at 15 min / TIC value at 30 min / TIC value at 60 min: LCMS TIC, individual replicates R1-R3, protein 0.5 mg/ml; for TIC value at 5 min: 5 min incubation; for TIC value at 15 min: 15 min incubation; for TIC value at 30 min: 30 min incubation; for TIC value at 60 min: 60 min incubation; for half-life / microsomal CLint: rat, microsomes.

Setting [1] is: Half Life Mean, rat liver microsomes, mean of R1-R3.
Setting [2] is: Half Life, rat liver microsomes, individual replicates R1-R3.
The mark [3] stands for this setting: Half-life (T1/2) in RLMs, 10 μM peptide, 37 °C, mean and s.d. of three measurements.
Setting [4] is: Metabolic stability: Half life T1/2 (min), RLMs, mean and SD, three measurements.
[5] abbreviates: Metabolic stability: RLM CL (ul/min/mg), RLMs, mean and SD, three measurements.
Where [6] appears, read: RLM CL Mean, rat liver microsomes, mean of R1-R3.
[7] abbreviates: RLM CL, rat liver microsomes, individual replicates R1-R3, incubation volume 400 ul, protein 0.5 mg/ml.

Several values for one entry are separate records, joined by “and”; a condition that tells them apart may be missing. Equal values may be shown once.

Experimental: Metabolic stability was measured by incubating the peptides (10 μM) with RLMs. Peptides to test were dissolved in DMSO (4 mM), and 1 μl of the resulting solution was added to 365 μl of 0.1 M sodium phosphate buffer (pH 7.4). The solution was pre-warmed at 37 °C for 5 min before starting the reaction by addition of 24 μl of NADPH cofactor solution (22 mM) and 11 μl of RLMs (20 mg ml^−1 protein concentration; Thermo Fisher Scientific, RTMCPL). […] Samples were vortexed, sonicated for 5 min and centrifuged at 16,000g for 10 min. Supernatant was analyzed by LC–MS to quantify the disappearance of the compound and formation of degradation products.

In the case of `O=C1CC2CCN(CC2)C(=O)[C@@H](NC(=O)c2cc(F)cc(F)c2)CSCc2ccc(cc2)CSCCNC(=O)[C@H](Cc2ccccc2)N1` [peptide 1], the “TIC value at 0 min” value (rat liver microsomes) is 4586491 (2×) and 3645847. In addition, the “TIC value at 5 min” value (rat liver microsomes) is 3654952 and 3734486 and 3061802. For the same compound, the “TIC value at 15 min” value (rat liver microsomes) is 1752251 and 2543021 and 981764. In addition, where the note is “rat liver microsomes”, the “TIC value at 30 min” value was 740144 and 790714 and 195334. Where the note is “rat liver microsomes”, the “TIC value at 60 min” value was 105910 and 231909 and 39522. The half-life (as a rule, the time in which the quantity being followed falls by half) under setting [1] came out at 11.5 min; the half-life under setting [2] is 11.6 min; the half-life under setting [3] amounted to 11 min; the half-life under setting [4] stood at 11.5 ± 1.7 min. Besides, the microsomal CLint (as a rule, a measure of how fast metabolising enzymes remove a compound, apart from limits set by blood flow) turned out to be 123 ± 18 µL/min/mg under setting [5], 123 µL/min/mg under setting [6] and 119 µL/min/mg under setting [7].
With `O=C1C[C@@H]2CCCN2C(=O)[C@@H](NC(=O)c2cccc(Cl)c2)CSCc2cccc(n2)CSCCNC(=O)[C@H](Cc2c[nH]c3ccccc23)N1` [compound 7], the “TIC value at 0 min” value (rat liver microsomes) is 3550654 (2×) and 4325681. The “TIC value at 5 min” value (rat liver microsomes) was 3349041 and 3673040 and 3817703. The “TIC value at 15 min” value (rat liver microsomes) was 2080247 and 3097312 and 2624551. Where the note is “rat liver microsomes”, the “TIC value at 30 min” value is 1705819 and 1909847 and 1817380. Besides, the “TIC value at 60 min” value (rat liver microsomes) is 1049135 and 1421730 and 1465716. The half-life came out at 31.3 min under setting [1], 28.4 min under setting [2], 31 ± 5 min under setting [3] and 31 ± 5 min under setting [4]. The microsomal CLint runs as follows: under setting [5], 45 ± 6 µL/min/mg; under setting [6], 45.2 µL/min/mg; under setting [7], 48.8 µL/min/mg.
As to `CC(C)[C@@H]1NC(=O)CCSCCS(=O)(=O)CCSCCNC(=O)[C@H](CNC(=O)c2ccco2)NC1=O` [compound 10], for the setting “rat liver microsomes”, the “TIC value at 0 min” value was 5136707 (2×) and 3317301; the “TIC value at 5 min” value was 5335426 and 4509848 and 3329443; the “TIC value at 15 min” value was 4513948 and 3668718 and 2626547; the “TIC value at 30 min” value was 4035558 and 3666920 and 2228136. Moreover, the “TIC value at 60 min” value (rat liver microsomes) was 3223521 and 2515297 and 2382324. This compound returned a half-life under setting [1] of more than 60 min. Under setting [2], this compound registered a half-life of more than 60 min. In addition, the microsomal CLint under setting [5] is 17.6 ± 2.6 µL/min/mg. Under setting [6], the microsomal CLint amounted to 17.6 µL/min/mg. Further, the microsomal CLint under setting [7] was found to be 15.4 µL/min/mg.
Turning to `COc1ccc(CC(=O)N[C@H]2Cc3ccc(cc3)CNC(=O)c3cccc(c3)CNC(=O)CCSCc3ccc(cc3)CSCCNC2=O)cc1OC` [peptide 3], the “TIC value at 0 min” value (rat liver microsomes) was 1629049 (2×) and 1656894. In addition, the “TIC value at 5 min” value (rat liver microsomes) was 1396633 and 1109599 and 1416564. Besides, the “TIC value at 15 min” value (rat liver microsomes) was 688706 and 808072 and 696583. For the same compound, the “TIC value at 30 min” value (rat liver microsomes) is 432016 and 448206 and 497739. In addition, where the note is “rat liver microsomes”, the “TIC value at 60 min” value was 192689 and 235300 and 132050. The same compound yielded a half-life under setting [1] of 16.9 min, a half-life under setting [2] of 15 min, a half-life under setting [3] of 16.9 ± 2.5 min and a half-life under setting [4] of 16.9 ± 2.5 min. Moreover, the intrinsic metabolic clearance (microsomal CLint) is, setting by setting: under setting [5], 84 ± 11 µL/min/mg; under setting [6], 83.8 µL/min/mg; under setting [7], 92.5 µL/min/mg.
`O=C(Cc1c[nH]c2ccccc12)N[C@H]1CSCCS(=O)(=O)CCSCCNC(=O)C2(CCCC2)NC(=O)[C@@H]2CCCN2C1=O` [compound 5]: where the note is “rat liver microsomes”, the “TIC value at 0 min” value was 4100940 (2×) and 3001933; the “TIC value at 5 min” value was 3877569 and 3883518 and 2646636; the “TIC value at 15 min” value is 3731666 and 3678603 and 2895431; the “TIC value at 30 min” value is 3163475 and 3179511 and 2181012. Besides, where the note is “rat liver microsomes”, the “TIC value at 60 min” value is 2955229 and 3322280 and 1801495. In addition, the half-life under setting [1] is more than 60 min. The compound further returned a half-life under setting [2] of more than 60 min. Besides, the microsomal CLint under setting [6] was determined as 14.1 µL/min/mg. Further, the microsomal CLint under setting [7] was found to be 12.6 µL/min/mg.
Take `NC(=O)NCCC[C@@H]1NC(=O)C2CN(CCN2C(=O)C2CCCN2S(=O)(=O)c2ccc(F)cc2)C(=O)CCSC/C=C/CSCCNC1=O` (stereo partly shown) [peptide 4]: under “rat liver microsomes”, the “TIC value at 0 min” value was 2209118 (2×) and 1061770. Further, the “TIC value at 5 min” value (rat liver microsomes) was 1524575 and 1610332 and 921634. Also, the “TIC value at 15 min” value (rat liver microsomes) is 1519207 and 1327718 and 738514. Besides, where the note is “rat liver microsomes”, the “TIC value at 30 min” value is 1146033 and 1076120 and 486997. Also, under “rat liver microsomes”, the “TIC value at 60 min” value is 743609 and 590507 and 376829. For the same compound, the half-life runs as follows: under setting [1], 34.6 min; under setting [2], 31.2 min; under setting [3], 34 ± 4 min; under setting [4], 35 ± 4 min. The same compound yielded a microsomal CLint under setting [5] of 41 ± 5 µL/min/mg, a microsomal CLint under setting [6] of 40.6 µL/min/mg and a microsomal CLint under setting [7] of 44.4 µL/min/mg.
Consider `O=C1CSCCNC(=O)c2ccc(cc2)CNC(=O)[C@@H](NC(=O)C2CCS(=O)(=O)CC2)CCNC(=O)CCSC1` [compound 6], for which, for the setting “rat liver microsomes”, the “TIC value at 0 min” value was 880057 (2×) and 553202; the “TIC value at 5 min” value is 821271 and 965964 and 386285; the “TIC value at 15 min” value is 765281 and 1161804 and 367708; the “TIC value at 30 min” value is 697748 and 898601 and 342582. Also, the “TIC value at 60 min” value (rat liver microsomes) was 664165 and 808479 and 323125. Under setting [2], the half-life amounted to 50.6 min. The compound further displayed a microsomal CLint under setting [5] of 16.6 ± 7.6 µL/min/mg. The compound further displayed a microsomal CLint under setting [6] of 16.6 µL/min/mg.
Turning to `O=C(N[C@H]1CSC/C=C\CSCCNC(=O)C2(CC2)CNC(=O)[C@H](CO)NC1=O)c1cccnc1` [peptide 2], under “rat liver microsomes”, the “TIC value at 0 min” value is 4300369 (2×) and 5050392; the “TIC value at 5 min” value was 4094044 and 4040957 and 4614305; the “TIC value at 15 min” value was 4065591 and 3605857 and 4671032; the “TIC value at 30 min” value was 3778445 and 3534653 and 4132452. Further, the “TIC value at 60 min” value (rat liver microsomes) is 3236121 and 3689440 and 3984891. The compound further registered a half-life under setting [1] of more than 60 min. The compound also displayed a half-life under setting [2] of more than 60 min. The same compound returned an intrinsic clearance (microsomal CLint) under setting [5] of 10.7 ± 1.9 µL/min/mg. The same compound gave a microsomal CLint under setting [6] of 10.7 µL/min/mg. The intrinsic metabolic clearance (microsomal CLint) under setting [7] came out at 9.21 µL/min/mg.
In the case of `Cn1nccc1C(=O)N1CCC2(CC1)NC(=O)[C@H](CC1CCCCC1)NC(=O)CCSCc1cccc(n1)CSCCNC2=O` [compound 9], the “TIC value at 0 min” value (rat liver microsomes) was 15547492 (2×) and 14631455. Further, the “TIC value at 5 min” value (rat liver microsomes) was 12759369 and 8856874 and 13246148. Besides, the “TIC value at 15 min” value (rat liver microsomes) is 8028101 and 6898172 and 9892349. The “TIC value at 30 min” value (rat liver microsomes) was 4900968 and 4228902 and 5914854. Further, the “TIC value at 60 min” value (rat liver microsomes) was 1719220 and 1798352 and 2620253. Further, the half-life under setting [1] amounted to 22.3 min, the half-life under setting [2] is 17.3 min, the half-life under setting [3] was determined as 22 ± 4 min and the half-life under setting [4] amounted to 22 ± 4 min. Also, the microsomal CLint runs as follows: under setting [5], 64 ± 11 µL/min/mg; under setting [6], 64.1 µL/min/mg; under setting [7], 80.2 µL/min/mg.
`CN1CCC(=O)NCCSCC(=O)CSC[C@H](NC(=O)c2cccc(C(F)(F)F)c2)C(=O)N2CCC[C@@H](C2)C1=O` [compound 8]: for the setting “rat liver microsomes”, the “TIC value at 0 min” value is 6751463 (2×) and 7547988. For the same compound, the “TIC value at 5 min” value (rat liver microsomes) was 6145465 and 6292775 and 6289651. For the same compound, the “TIC value at 15 min” value (rat liver microsomes) was 3895721 and 6301539 and 5568669. Also, the “TIC value at 30 min” value (rat liver microsomes) was 3369766 and 4709220 and 3894141. Moreover, the “TIC value at 60 min” value (rat liver microsomes) is 1916782 and 2986882 and 2251799. In addition, the half-life reads like this: under setting [1], 37.4 min; under setting [2], 28.1 min; under setting [3], 37 ± 10 min; under setting [4], 37 ± 10 min. Further, the microsomal CLint reads like this: under setting [5], 40 ± 9 µL/min/mg; under setting [6], 39.6 µL/min/mg; under setting [7], 49.2 µL/min/mg.

The values are drawn from publication PMC11062899, “De novo development of small cyclic peptides that are orally bioavailable” (Nature Chemical Biology, 2023).
